Legend:
[1] = system: Rabbit Psoas myofibrils (skeletal myosin ATPase); experiment: Myofibril ATPase assay, rabbit psoas (skeletal) myofibrils; format: biochemical; settings: rabbit psoas myofibrils
Method in brief: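 Values are concentrations giving 75% (Y75) or 125% (Y125) of vehicle ATPase activity, from 4-parameter logistic fits of normalized rates. Rates came from linear regression of A340 over 75 min, NADH oxidation coupled to ADP via PK-LDH. Enzyme source: skeletal myofibrils from rabbit psoas, pH 7.0 pCa buffer.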

[2] = system: Porcine atria myofibrils (atrial myosin ATPase); experiment: Myofibril ATPase assay, porcine atria myofibrils; format: biochemical; settings: porcine atria myofibrils
Method in brief: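 Y75 (25% inhibition) or Y125 (activation) values come from 4-parameter logistic fits of vehicle-normalized rates. Rates are linear-regression slopes of NADH absorbance at 340 nm, read kinetically over 75 min, with ADP coupled to NADH oxidation via pyruvate kinase/lactate dehydrogenase.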

[3] = biological target: T1, Porcine ventricle myofibrils (ventricular myosin ATPase) (Sus scrofa, UniProt P79293); experiment: Myofibril ATPase assay, porcine ventricle myofibrils; format: biochemical, porcine (Yucatan minipigs); settings: porcine ventricle myofibrils
T1 construct: Myofibrils from porcine cardiac muscle was isolated from the left ventricle of Yucatan minipigs; tissue Exemplar Genetics; host or cells: left ventricle of Yucatan minipigs, myofibrils prepared in house
T1 sequence (P79293 whole entry): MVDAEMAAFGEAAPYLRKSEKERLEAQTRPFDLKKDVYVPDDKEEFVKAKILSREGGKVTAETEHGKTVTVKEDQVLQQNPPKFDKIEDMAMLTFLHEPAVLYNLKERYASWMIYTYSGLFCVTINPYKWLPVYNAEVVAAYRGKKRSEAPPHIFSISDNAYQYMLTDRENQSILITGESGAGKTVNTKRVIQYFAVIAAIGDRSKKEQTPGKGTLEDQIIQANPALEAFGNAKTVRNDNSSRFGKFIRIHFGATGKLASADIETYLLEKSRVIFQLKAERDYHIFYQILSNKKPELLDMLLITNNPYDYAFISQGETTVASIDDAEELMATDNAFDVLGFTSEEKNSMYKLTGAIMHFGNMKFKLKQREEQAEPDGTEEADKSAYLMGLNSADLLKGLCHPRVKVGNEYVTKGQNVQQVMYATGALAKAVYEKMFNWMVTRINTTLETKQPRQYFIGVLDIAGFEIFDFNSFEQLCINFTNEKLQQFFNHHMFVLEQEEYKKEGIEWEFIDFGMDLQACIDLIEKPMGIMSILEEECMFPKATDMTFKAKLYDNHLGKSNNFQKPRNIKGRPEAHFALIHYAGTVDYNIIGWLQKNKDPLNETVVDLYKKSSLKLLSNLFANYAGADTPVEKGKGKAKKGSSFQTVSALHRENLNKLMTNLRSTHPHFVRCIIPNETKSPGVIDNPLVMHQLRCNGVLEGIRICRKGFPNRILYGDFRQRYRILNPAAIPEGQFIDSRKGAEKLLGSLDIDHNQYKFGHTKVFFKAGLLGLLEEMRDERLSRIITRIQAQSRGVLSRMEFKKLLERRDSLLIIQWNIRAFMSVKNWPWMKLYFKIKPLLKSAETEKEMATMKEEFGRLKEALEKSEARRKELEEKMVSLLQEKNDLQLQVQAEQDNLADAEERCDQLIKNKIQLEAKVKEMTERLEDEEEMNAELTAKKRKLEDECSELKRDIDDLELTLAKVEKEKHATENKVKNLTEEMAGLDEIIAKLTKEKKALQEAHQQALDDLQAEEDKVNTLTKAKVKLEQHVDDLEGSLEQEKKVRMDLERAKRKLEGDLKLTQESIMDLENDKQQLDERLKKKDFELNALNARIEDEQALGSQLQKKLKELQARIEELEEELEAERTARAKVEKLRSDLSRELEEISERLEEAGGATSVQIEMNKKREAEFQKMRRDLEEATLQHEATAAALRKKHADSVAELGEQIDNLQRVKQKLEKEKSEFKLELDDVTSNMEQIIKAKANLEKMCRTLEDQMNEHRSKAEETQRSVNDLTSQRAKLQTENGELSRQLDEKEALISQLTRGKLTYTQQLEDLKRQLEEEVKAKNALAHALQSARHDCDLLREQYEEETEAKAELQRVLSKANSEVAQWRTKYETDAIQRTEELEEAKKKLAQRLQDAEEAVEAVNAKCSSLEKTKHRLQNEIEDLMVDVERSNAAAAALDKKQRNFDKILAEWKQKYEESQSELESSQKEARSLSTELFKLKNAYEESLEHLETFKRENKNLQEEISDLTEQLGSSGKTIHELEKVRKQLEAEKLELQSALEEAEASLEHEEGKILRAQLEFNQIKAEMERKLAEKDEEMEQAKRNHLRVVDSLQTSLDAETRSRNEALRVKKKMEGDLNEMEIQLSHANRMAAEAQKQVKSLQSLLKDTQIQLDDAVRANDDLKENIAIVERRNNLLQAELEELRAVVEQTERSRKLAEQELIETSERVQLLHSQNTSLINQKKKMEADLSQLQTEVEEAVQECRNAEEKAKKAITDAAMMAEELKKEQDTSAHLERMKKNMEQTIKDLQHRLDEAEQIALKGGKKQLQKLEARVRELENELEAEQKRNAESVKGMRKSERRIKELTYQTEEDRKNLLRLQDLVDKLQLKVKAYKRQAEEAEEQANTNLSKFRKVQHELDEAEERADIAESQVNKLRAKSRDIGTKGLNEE
Method in brief: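 ATPase activity of porcine left-ventricle myofibrils (Yucatan minipig) was followed through PK-LDH coupling as NADH loss at 340 nm, read every 1.5-2 min for 75 min. Slopes were normalised to vehicle wells and fitted to a 4-parameter logistic model. Values are Y75, the concentration giving a 25% drop in activity, or Y125 for activators.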

[4] = Y75 value (75% activity relative to no compound)
[5] = ‡ Y125 value, not a Y75 value (125% activity relative to no compound)

Cc1nccc2[nH]c(=O)c(CC(=O)N[C@H]3CCc4cc(C#N)cc(F)c43)c(C)c12 (single isomer, unassigned) [compound 198]
Skeletal EC25 ([1]; Y75 value): 0.02 µM | Atrial EC25 [2, 4]: 310 nM | Ventricular EC25 ([3]; Y75 value): 0.18 µM

C[C@H](NC(=O)[C@H](C)c1cc2c(F)c(F)ccc2[nH]c1=O)c1ccc(F)cc1F (single isomer, unassigned) [compound 111]
Skeletal EC25 ([1]; Y75 value (no ‡ mark)): 0.11 µM | Atrial EC25 ([2]; Y75 value (no ‡ mark)): 100 nM | Ventricular EC25 ([3]; Y75 value (no ‡ mark)): 100.00 µM

Cc1c(CC(=O)N[C@@H](C)c2ncc(C#N)cc2F)c(=O)[nH]c2cc(F)c(F)cc12 [compound 1105]
Skeletal EC25 ([1]; Y75 value (no ‡ mark)): 1.36 µM | Atrial EC25 ([2]; Y75 value (no ‡ mark)): 100000 nM | Ventricular EC25 ([3]; Y75 value (no ‡ mark)): 4.47 µM

C[C@@H](NC(=O)C(F)(F)c1cc2cc(F)ccc2[nH]c1=O)c1cccc(C#N)n1 (single isomer, unassigned) [compound 2581]
Skeletal EC25 ([1]; Y75 value (no ‡ mark)): 100.00 µM | Atrial EC25 ([2]; Y75 value (no ‡ mark)): 100000 nM | Ventricular EC25 ([3]; Y75 value (no ‡ mark)): 100.00 µM

Cc1c([C@@H](Cc2ccccc2)C(=O)N[C@@H](C)c2ccc(F)cc2F)c(=O)[nH]c2ccnc(F)c12 (single isomer, unassigned) [compound 358]
Skeletal EC25 ([1]; Y75 value): 100.00 µM | Atrial EC25 [2, 4]: 23890 nM | Ventricular EC25 ([3]; Y75 value): 54.71 µM

Cc1c(CC(=O)N[C@@H](C)c2ccc(F)cc2F)c(=O)[nH]c2ccnc(OCC(C)(C)F)c12 [compound 372]
Skeletal EC25 ([1]; Y75 value): 1.61 µM | Atrial EC25 [2, 4]: 100000 nM | Ventricular EC25 ([3]; Y75 value): 100.00 µM

Cc1c(C(F)(F)C(=O)N[C@@H](C)c2ncc(C#N)cc2F)c(=O)[nH]c2ccc(F)c(C#N)c12 (single isomer, unassigned) [compound 4836]
Skeletal EC25 ([1]; Y75 value (no ‡ mark)): 0.02 µM | Atrial EC25 ([2]; Y75 value (no ‡ mark)): 170 nM | Ventricular EC25 ([3]; Y75 value (no ‡ mark)): 0.15 µM

Cc1c(CC(=O)N[C@@H](C)c2ncc(F)cc2F)c(=O)[nH]c2ccnc(C(F)(F)F)c12 (single isomer, unassigned) [compound 266]
Skeletal EC25 ([1]; Y75 value): 0.21 µM | Atrial EC25 [2, 4]: 250 nM | Ventricular EC25 ([3]; Y75 value): 1.11 µM

C[C@H](NC(=O)[C@@H](C)c1cc2cc(F)ccc2[nH]c1=O)c1ccc(F)cc1F (single isomer, unassigned) [compound 2608]
Skeletal EC25 ([1]; Y75 value (no ‡ mark)): 100.00 µM | Atrial EC25 ([2]; Y75 value (no ‡ mark)): 100000 nM | Ventricular EC25 [3, 5]: 44.26‡ μM

C[C@H](NC(=O)Cc1cc2c(OCC(F)F)nccc2[nH]c1=O)c1ccc(F)cc1F [compound 389]
Skeletal EC25 ([1]; Y75 value): 0.25 µM | Atrial EC25 [2, 4]: 710 nM | Ventricular EC25 ([3]; Y75 value): 100.00 µM

Cc1c(CC(=O)N[C@H](CO)c2ccc(F)cc2F)c(=O)[nH]c2ccnc(OC3CC3)c12 [compound 199]
Skeletal EC25 ([1]; Y75 value): 13.03 µM | Atrial EC25 [2, 4]: 100000 nM | Ventricular EC25 ([3]; Y75 value): 67.50 µM

Cc1c(CC(=O)N[C@@H](C)c2ncc(C#N)cn2)c(=O)[nH]c2ccc(F)c(C3CC3)c12 (single isomer, unassigned) [compound 2060]
Skeletal EC25 ([1]; Y75 value (no ‡ mark)): 0.26 µM | Atrial EC25 ([2]; Y75 value (no ‡ mark)): 450 nM | Ventricular EC25 ([3]; Y75 value (no ‡ mark)): 3.02 µM

Cc1cc([C@H](C)NC(=O)Cc2cc3c(C#N)nccc3[nH]c2=O)ncc1F [compound 471]
Skeletal EC25 ([1]; Y75 value): 100.00 µM | Atrial EC25 [2, 4]: 100000 nM | Ventricular EC25 ([3]; Y75 value): 67.58 µM

C[C@@H](NC(=O)Cc1c(C2CC2)c2cnccc2[nH]c1=O)c1ccc(C#N)cn1 [compound 140]
Skeletal EC25 ([1]; Y75 value): 42.18 µM | Atrial EC25 [2, 4]: 100000 nM | Ventricular EC25 ([3]; Y75 value): 100.00 µM

Cc1c(CC(=O)N[C@@H](C)c2ncc(F)cc2F)c(=O)[nH]c2ccc(O)nc12 (single isomer, unassigned) [compound 223]
Skeletal EC25 ([1]; Y75 value): 16.17 µM | Atrial EC25 [2, 4]: 12990 nM | Ventricular EC25 ([3]; Y75 value): 61.19 µM

C[C@H](NC(=O)C1(c2cc3c(F)c(F)ccc3[nH]c2=O)CC1)c1ncc(C#N)cc1F (single isomer, unassigned) [compound 2593]
Skeletal EC25 ([1]; Y75 value (no ‡ mark)): 1.15 µM | Atrial EC25 ([2]; Y75 value (no ‡ mark)): 190 nM | Ventricular EC25 ([3]; Y75 value (no ‡ mark)): 1.00 µM

Cc1c(CC(=O)N[C@@H](C)c2ccc(C#N)cc2F)c(=O)[nH]c2ccc(F)c(C3CC3)c12 [compound 70]
Skeletal EC25 ([1]; Y75 value (no ‡ mark)): 0.03 µM | Atrial EC25 ([2]; Y75 value (no ‡ mark)): 100000 nM | Ventricular EC25 ([3]; Y75 value (no ‡ mark)): 100.00 µM

Cc1c(CC(=O)N[C@@H](C)c2ncc(C#N)cn2)c(=O)[nH]c2ccc(C#N)cc12 (single isomer, unassigned) [compound 2028]
Skeletal EC25 [1, 5]: 73.42‡ μM | Atrial EC25 ([2]; Y75 value (no ‡ mark)): 100000 nM | Ventricular EC25 [3, 5]: 100.00‡ μM

Cc1cc(F)cc(F)c1[C@@H](C)NC(=O)Cc1c(C)c2c(C)nccc2[nH]c1=O (single isomer, unassigned) [compound 404]
Skeletal EC25 ([1]; Y75 value): 0.35 µM | Atrial EC25 [2, 4]: 100000 nM | Ventricular EC25 ([3]; Y75 value): 42.84 µM

Cc1c(CC(=O)N[C@@H](C)c2ccc(C#N)cc2F)c(=O)[nH]c2ccc(C(F)(F)F)nc12 (single isomer, unassigned) [compound 209]
Skeletal EC25 ([1]; Y75 value): 0.01 µM | Atrial EC25 [2, 4]: 30 nM | Ventricular EC25 ([3]; Y75 value): 0.14 µM

Cc1nc(C#N)ncc1[C@H](C)NC(=O)Cc1cc2cc(F)c(F)cc2[nH]c1=O [compound 1097]
Skeletal EC25 ([1]; Y75 value (no ‡ mark)): 0.15 µM | Atrial EC25 ([2]; Y75 value (no ‡ mark)): 1110 nM | Ventricular EC25 ([3]; Y75 value (no ‡ mark)): 1.56 µM

COc1ccc2[nH]c(=O)c(CC(=O)N[C@@H](C)c3ccc(F)cc3F)c(C)c2c1C#N [compound 1153]
Skeletal EC25 ([1]; Y75 value (no ‡ mark)): 0.66 µM | Atrial EC25 ([2]; Y75 value (no ‡ mark)): 890 nM | Ventricular EC25 ([3]; Y75 value (no ‡ mark)): 2.86 µM

Cc1c(CC(=O)N[C@@H](CO)c2ncccc2F)c(=O)[nH]c2ccnc(C#N)c12 (single isomer, unassigned) [compound 236]
Skeletal EC25 ([1]; Y75 value): 0.59 µM | Atrial EC25 [2, 4]: 38110 nM | Ventricular EC25 ([3]; Y75 value): 100.00 µM

Cc1nccc2[nH]c(=O)c(CC(=O)N[C@@H](C)c3cccnc3O)c(C)c12 (single isomer, unassigned) [compound 307]
Skeletal EC25 ([1]; Y75 value): 100.00 µM | Atrial EC25 [2, 4]: 100000 nM | Ventricular EC25 ([3]; Y75 value): 100.00 µM

Cc1nc([C@H](C)NC(=O)Cc2c(C)c3c(C)c(F)ccc3[nH]c2=O)ncc1C#N (single isomer, unassigned) [compound 4840]
Skeletal EC25 ([1]; Y75 value (no ‡ mark)): 0.29 µM | Atrial EC25 ([2]; Y75 value (no ‡ mark)): 1440 nM | Ventricular EC25 ([3]; Y75 value (no ‡ mark)): 1.62 µM

Cc1c(C(F)(F)C(=O)N[C@H](C)c2ncc(C#N)cc2F)c(=O)[nH]c2ccnc(C#N)c12 (single isomer, unassigned) [compound 3510]
Skeletal EC25 ([1]; Y75 value): 0.16 µM | Atrial EC25 [2, 4]: 440 nM | Ventricular EC25 ([3]; Y75 value): 1.30 µM

C[C@H](NC(=O)[C@@H](C)c1c(C(F)(F)F)c2cnccc2[nH]c1=O)c1ccc(F)cc1F (single isomer, unassigned) [compound 426]
Skeletal EC25 ([1]; Y75 value): 12.74 µM | Atrial EC25 [2, 4]: 4840 nM | Ventricular EC25 ([3]; Y75 value): 66.84 µM

C[C@H](NC(=O)Cc1cc2c(F)c(F)ccc2[nH]c1=O)c1cnc(C#N)cn1 (single isomer, unassigned) [compound 12]
Skeletal EC25 ([1]; Y75 value (no ‡ mark)): 0.03 µM | Atrial EC25 ([2]; Y75 value (no ‡ mark)): 30 nM | Ventricular EC25 ([3]; Y75 value (no ‡ mark)): 0.11 µM

Cc1cc(F)cnc1[C@@H](C)NC(=O)C1(c2cc3c(F)c(F)ccc3[nH]c2=O)CC1 (single isomer, unassigned) [compound 4805]
Skeletal EC25 ([1]; Y75 value (no ‡ mark)): 1.91 µM | Atrial EC25 ([2]; Y75 value (no ‡ mark)): 1660 nM | Ventricular EC25 ([3]; Y75 value (no ‡ mark)): 100.00 µM

Cc1c([C@H](C)C(=O)N[C@H](C)c2ncc(C#N)cc2F)c(=O)[nH]c2ccc(F)c(F)c12 (single isomer, unassigned) [compound 2601]
Skeletal EC25 ([1]; Y75 value (no ‡ mark)): 0.04 µM | Atrial EC25 ([2]; Y75 value (no ‡ mark)): 40 nM | Ventricular EC25 ([3]; Y75 value (no ‡ mark)): 0.07 µM

Cc1c(C(F)(F)C(=O)N[C@H](C)c2cc(C#N)ccn2)c(=O)[nH]c2ccc(F)c(F)c12 (single isomer, unassigned) [compound 2585]
Skeletal EC25 ([1]; Y75 value (no ‡ mark)): 3.04 µM | Atrial EC25 ([2]; Y75 value (no ‡ mark)): 1590 nM | Ventricular EC25 ([3]; Y75 value (no ‡ mark)): 7.05 µM

C[C@H](NC(=O)C(F)(F)c1cc2cc(F)ccc2[nH]c1=O)c1ccc(F)cc1F [compound 119]
Skeletal EC25 ([1]; Y75 value (no ‡ mark)): 0.11 µM | Atrial EC25 ([2]; Y75 value (no ‡ mark)): 260 nM | Ventricular EC25 ([3]; Y75 value (no ‡ mark)): 1.96 µM

COc1nccc2[nH]c(=O)c(CC(=O)N[C@@H](C)c3ncc(C#N)cc3F)c(C(F)(F)F)c12 (single isomer, unassigned) [compound 3010]
Skeletal EC25 ([1]; Y75 value): 0.63 µM | Atrial EC25 [2, 4]: 700 nM | Ventricular EC25 ([3]; Y75 value): 3.57 µM

Cc1nccc2[nH]c(=O)c(C3(C(=O)N[C@@H](C)c4ncc(C#N)cc4F)CC3)c(C)c12 (single isomer, unassigned) [compound 3507]
Skeletal EC25 ([1]; Y75 value): 100.00 µM | Atrial EC25 [2, 4]: 2610 nM | Ventricular EC25 ([3]; Y75 value): 18.82 µM

Cc1c(CC(=O)N[C@@H](C)c2cnc(C#N)nc2)c(=O)[nH]c2ccc(F)cc12 [compound 1101]
Skeletal EC25 ([1]; Y75 value (no ‡ mark)): 0.06 µM | Atrial EC25 ([2]; Y75 value (no ‡ mark)): 170 nM | Ventricular EC25 ([3]; Y75 value (no ‡ mark)): 0.31 µM

Cc1c(CC(=O)N[C@@H](C)c2cnc(C#N)cn2)c(=O)[nH]c2cc(F)c(F)cc12 [compound 1103]
Skeletal EC25 ([1]; Y75 value (no ‡ mark)): 0.06 µM | Atrial EC25 ([2]; Y75 value (no ‡ mark)): 400 nM | Ventricular EC25 ([3]; Y75 value (no ‡ mark)): 1.07 µM

— patent US12448369B2 (Edgewise Therapeutics, Inc., priority 2023, dated 2025)
